According to patent US11964052B2, “Lipid compounds and lipid nanoparticle compositions” (SUZHOU ABOGEN BIOSCIENCES CO., LTD., priority 2021, dated 2024):

Experiments:
Type in all cases: physicochemical
[1] = Lipid nanoparticle size and polydispersity by dynamic light scattering (Malvern Zetasizer Nano ZS); conditions: LNP of cationic lipid/DSPC/cholesterol/PEG-lipid 50:10:38.5:1.5 with mRNA
Procedure: (§1) Briefly, a cationic lipid provided herein, DSPC, cholesterol, and PEG-lipid were solubilized in ethanol at a molar ratio of 50:10:38.5:1.5, and mRNA were diluted in 10 to 50 mM citrate buffer, pH=4. The LNPs were prepared at a total lipid to mRNA weight ratio of approximately 10:1 to 30:1 by mixing the ethanolic lipid solution with the aqueous mRNA solution at a volume ratio of 1:3 using a microfluidic apparatus, total flow rate ranging from 9-30 mL/min. Ethanol were thereby removed and replaced by DPBS using dialysis. Finally, the lipid nanoparticles were filtered through a 0.2 μm sterile filter.
(§2) Lipid nanoparticle size were determined by dynamic light scattering using a Malvern Zetasizer Nano ZS (Malvern UK) using a 173° backscatter detection mode. The encapsulation efficiency of lipid nanoparticles were determined using a Quant-it Ribogreen RNA quantification assay kit (Thermo Fisher Scientific, UK) according to the manufacturer's instructions.

[2] = Encapsulation efficiency of lipid nanoparticles, Quant-it Ribogreen RNA quantification assay; conditions: LNP with mRNA
Procedure: as §1, §2

[3] = Apparent pKa of LNP formulations, TNS fluorescence assay; conditions: LNP cationic lipid/DSPC/cholesterol/DMG-PEG 50/10/38.5/1.5 mol %, pH 3 to 9
Procedure: As reported in literature, the apparent pKa of LNP formulations correlates with the delivery efficiency of LNPs for nucleic acids in vivo. The apparent pKa of each formulation was determined using an assay based on fluorescence of 2-(p-toluidino)-6-napthalene sulfonic acid (TNS). LNP formulations comprising of cationic lipid/DSPC/cholesterol/DMG-PEG (50/10/38.5/1.5 mol %) in PBS were prepared as described above. TNS was prepared as a 300 uM stock solution in distilled water. LNP formulations were diluted to 0.1 mg/ml total lipid in 3 mL of buffered solutions containing 50 mM sodium citrate, 50 mM sodium phosphate, 50 mM sodium borate, and 30 mM sodium chloride where the pH ranged from 3 to 9. An aliquot of the TNS solution was added to give a final concentration of 0.1 mg/ml and following vortex mixing fluorescence intensity was measured at room temperature in a Molecular Devices Spectramax iD3 spectrometer using excitation and mission wavelengths of 325 nm and 435 nm. A sigmoidal best fit analysis was applied to the fluorescence data and the pKa value was measured as the pH giving rise to half-maximal fluorescent intensity.

| SMILES | polydispersity [1] | size (nm) [1] [nm] | Encapsulation Efficiency [2] [%] | Apparant Pka [3] |
| --- | --- | --- | --- | --- |
| CCCCC/C=C\C/C=C\CCCCCCCC(=O)OCC(CCCCN(CCO)C1CCCCCC1)COC(=O)CC(CCCCCC)CCCCCCCC (stereo not shown) [Compound 91] | 0.111 | 63.89 | 92.11 | 6.608 |
| CCCCCCCCCCCCOCC(CN(CCCCCC(=O)OCC(CCCCCC)CCCCCCCC)CCN(CCO)C1CCC1)OCCCCCC (stereo not shown) [Compound 23] | 0.076 | 74.73 | 88.5 | 5.993 |
| CCCCCCCCCCCCOCC(CN(CCCCCC(=O)OCC(CCCCCC)CCCCCCCC)CCN1CCCCC1)OC(=O)CCCCC (stereo not shown) [Compound 15] | 0.139 | 62.11 | 93.5 | 5.875 |
| CCCCCCCCCCCCOCC(CN(CCO)CCCCCC(=O)OCC(CCCCCC)CCCCCCCC)OC(C)=O (stereo not shown) [Compound 18] | 0.17 | 65.06 | 90.6 | 4.916 |
| CCCCCCCCC(CCCCCC)COC(=O)CCOCC(CN(CCC)CCN(CCO)C1CCCCCC1)OCCC(=O)OCC(CCCCCC)CCCCCCCC (stereo not shown) [Compound 106] | 0.046 | 65.31 | 93.17 | 6.035 |
| CCCCCCCCCCCCOCC(CN(C)CCN(CCO)C1CCCCC1)OCCCCCC (stereo not shown) [Compound 45] | 0.289 | 68.33 | 86.8 | 7.466 |
| CCCCCCCCCCCCOCC(CN(C)CCN(CCO)C1CCCCC1)OCCCCCCCCCCCC (stereo not shown) [Compound 6] | 0.241 | 126.4 | 93.4 | 7.035 |
| CCCCCCCCCCCCOCC(CN(C)CCO)OC(=O)CCCCCCCCCCC (stereo not shown) [Compound 41] | 0.136 | 82.81 | 83.5 | 5.746 |
| CCCCCCCCCCCCOCC(CN(C)CCN(CCO)C1CCC1)OC(=O)CCCCCCCCCCC (stereo not shown) [Compound 42] | 0.155 | 82.81 | 94.4 | 6.283 |
| CCCCCCCCC(CCCCCCCC)CNC(=O)CCOCC(CN(C)CCN(CCO)C1CCC1)OCCC(=O)NCC(CCCCCCCC)CCCCCCCC (stereo not shown) [Compound 51] | 0.057 | 75.11 | 94.7 | 7.727 |
| CCCCCCCCCCCCCCCC(=O)OCC(CCCCN(CCO)C1CCCCCCC1)COC(=O)CC(CCCCCC)CCCCCCCC (stereo not shown) [Compound 88] | 0.063 | 59.54 | 92.91 | 6.309 |
| CCCCCCCCC(CCCCCC)CC(=O)OCC(CCCCN(CCN(CCO)CCCCCC)C1CCC1)COC(=O)CC(CCCCCC)CCCCCCCC (stereo not shown) [Compound 111] | 0.048 | 62.77 | 92.54 | 6.072 |
| CCCCCCCCC(CCCCCCCC)COC(=O)CCOCC(CN(C)CCN(CCO)C1CCCCCCC1)OCCC(=O)OCC(CCCCCCCC)CCCCCCCC (stereo not shown) [Compound 74] | 0.031 | 101.00 | 93.97 | 6.539 |
| CCCCCCCCCCC(=O)OCC(CCCCN(CCO)C1CCCC1)COC(=O)CC(CCCCCC)CCCCCCCC (stereo not shown) [Compound 84] | 0.01 | 83.05 | 93.44 | 6.785 |
| CCCCCCCCCCCCCCCC(=O)OCC(CCCCN(CCO)C1CCCCCC1)COC(=O)CC(CCCCCC)CCCCCCCC (stereo not shown) [Compound 87] | 0.044 | 64.08 | 92.47 | 6.372 |
| CCCCCCCCCCCCOCC(CN(CCCCCC(=O)OCC(CCCCCC)CCCCCCCC)CCN(CCO)C1CCC1)OCCCCCCCCCCCC (stereo not shown) [Compound 28] | 0.2 | 54.96 | 86.9 | 5.905 |
